Results: PubChem BioAssay AID256 (DTP/NCI, 2004)
Several values for one entry are separate records, joined by “and”; a condition that tells them apart may be missing. Equal entries are not always repeated. Toxic doses and inconclusive results are not listed. The calls were made as follows: active = survival T/C of 150% or more; inactive = T/C below 125% in these data.

System: CD2F1 mice, L1210 leukemia ip, survival T/C
Test: NCI In Vivo Anticancer Drug Screen. Data for tumor model L1210 Leukemia (intraperitoneal) in CD2F1 (CDF1) mice
Conditions: higher = longer survival
Method in brief: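 Mice carrying a transplanted tumor received test compound or vehicle alone. The value is the measurement in the treated group divided by that in the vehicle-treated control group.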

[1] = endpoint: mean survival time, dose: 100.0 mg/kg/injection, schedule: Q04DX003 (ip), vehicle: saline with Tween-80
[2] = endpoint: mean survival time, dose: 200.0 mg/kg/injection, schedule: Q04DX003 (ip), vehicle: saline with Tween-80
[3] = endpoint: mean survival time, dose: 400.0 mg/kg/injection, schedule: Q04DX003 (ip), vehicle: saline with Tween-80
[4] = endpoint: mean survival time, dose: 100.0 mg/kg/injection, schedule: Q01DX001 (ip), vehicle: saline with Tween-80
[5] = endpoint: mean survival time, dose: 100.0 mg/kg/injection, schedule: Q01DX009 (ip), vehicle: saline with Tween-80
[6] = endpoint: mean survival time, dose: 100.0 mg/kg/injection, schedule: Q04DX002 (ip), vehicle: saline with Tween-80
[7] = endpoint: mean survival time, dose: 200.0 mg/kg/injection, schedule: Q01DX001 (ip), vehicle: saline with Tween-80
[8] = endpoint: mean survival time, dose: 200.0 mg/kg/injection, schedule: Q01DX009 (ip), vehicle: saline with Tween-80
[9] = endpoint: mean survival time, dose: 400.0 mg/kg/injection, schedule: Q01DX001 (ip), vehicle: saline with Tween-80
[10] = endpoint: mean survival time, dose: 400.0 mg/kg/injection, schedule: Q01DX009 (ip), vehicle: saline with Tween-80
[11] = endpoint: mean survival time, dose: 100.0 mg/kg/injection, schedule: Q01DX001 (ip), vehicle: saline
[12] = endpoint: mean survival time, dose: 200.0 mg/kg/injection, schedule: Q01DX001 (ip), vehicle: saline
[13] = endpoint: mean survival time, dose: 400.0 mg/kg/injection, schedule: Q01DX001 (ip), vehicle: saline

Measured: T/C

Cn1c(=O)c2c(ncn2C)n(C)c1=O
inactive: endpoint: mean survival time, dose: 128.0 mg/kg/injection, schedule: Q11HX001 (sc), vehicle: water 94 % of control and 103 % of control | endpoint: mean survival time, dose: 160.0 mg/kg/injection, schedule: Q11HX001 (sc), vehicle: water 95 % of control and 98 % of control | endpoint: mean survival time, dose: 200.0 mg/kg/injection, schedule: Q11HX001 (sc), vehicle: water 96 % of control and 98 % of control | endpoint: mean survival time, dose: 250.0 mg/kg/injection, schedule: Q11HX001 (sc), vehicle: water 96 % of control and 98 % of control | endpoint: median survival time, dose: 150.0 mg/kg/injection, schedule: Q01DX001 (ip), vehicle: water 103 % of control | endpoint: median survival time, dose: 150.0 mg/kg/injection, schedule: Q01DX001 (sc), vehicle: water 102 % of control and 109 % of control | endpoint: median survival time, dose: 200.0 mg/kg/injection, schedule: Q01DX001 (ip), vehicle: water 104 % of control | endpoint: median survival time, dose: 200.0 mg/kg/injection, schedule: Q01DX001 (sc), vehicle: water 104 % of control and 108 % of control | endpoint: median survival time, dose: 250.0 mg/kg/injection, schedule: Q01DX001 (sc), vehicle: water 95 % of control and 107 % of control

NC(=O)c1csc(COCCO)n1
inactive: endpoint: median survival time, dose: 40.63 mg/kg/injection, schedule: Q01DX005 (ip), vehicle: water 102 % of control | endpoint: median survival time, dose: 81.25 mg/kg/injection, schedule: Q01DX005 (ip), vehicle: water 99 % of control | endpoint: median survival time, dose: 162.5 mg/kg/injection, schedule: Q01DX005 (ip), vehicle: water 103 % of control | endpoint: median survival time, dose: 325.0 mg/kg/injection, schedule: Q01DX005 (ip), vehicle: water 96 % of control

CCOc1ccc2c(O)csc2c1
inactive: [1] 90 % of control | [2] 91 % of control | [3] 91 % of control

COc1ccc2c(c1)C(=O)C(Br)CC2 (stereo not given)
inactive: [4] 101 % of control | [5] 98 % of control and 101 % of control | [6] 101 % of control and 102 % of control | [1] 108 % of control | [7] 93 % of control | [8] 97 % of control and 98 % of control | endpoint: mean survival time, dose: 200.0 mg/kg/injection, schedule: Q04DX002 (ip), vehicle: saline with Tween-80 100 % of control and 104 % of control | [2] 97 % of control | [9] 95 % of control | endpoint: mean survival time, dose: 400.0 mg/kg/injection, schedule: Q04DX002 (ip), vehicle: saline with Tween-80 103 % of control and 104 % of control | [3] 110 % of control

NNc1ccccc1F
inactive: endpoint: mean survival time, dose: 25.0 mg/kg/injection, schedule: Q04DX002 (ip), vehicle: saline with Tween-80 97 % of control | endpoint: mean survival time, dose: 50.0 mg/kg/injection, schedule: Q04DX002 (ip), vehicle: saline with Tween-80 90 % of control | [6] 93 % of control | endpoint: mean survival time, dose: 100.0 mg/kg/injection, schedule: Q04DX003 (ip), vehicle: saline sonified 87 % of control

COc1ccc(CCNC2CCCCC2O)cc1OC (stereo not given)
inactive: endpoint: mean survival time, dose: 75.0 mg/kg/injection, schedule: Q01DX001 (ip), vehicle: saline 106 % of control | endpoint: mean survival time, dose: 150.0 mg/kg/injection, schedule: Q01DX001 (ip), vehicle: saline 98 % of control | endpoint: mean survival time, dose: 300.0 mg/kg/injection, schedule: Q01DX001 (ip), vehicle: saline 104 % of control

CCCSCCCC(=O)O
inactive: endpoint: mean survival time, dose: 100.0 mg/kg/injection, schedule: Q04DX003 (ip), vehicle: Klucel (hydroxypropylcellulose) (HPC) 95 % of control | endpoint: mean survival time, dose: 200.0 mg/kg/injection, schedule: Q04DX003 (ip), vehicle: Klucel (hydroxypropylcellulose) (HPC) 98 % of control | endpoint: mean survival time, dose: 400.0 mg/kg/injection, schedule: Q04DX003 (ip), vehicle: Klucel (hydroxypropylcellulose) (HPC) 103 % of control

COc1cc2c3c(c1OC)C1(C=CC(=O)C=C1)CC3N(C(C)=O)CC2 (stereo not given)
inactive: [1] 97 % of control | [2] 95 % of control | [3] 94 % of control

S=C(Nc1ccc(Cl)c(Cl)c1)SCc1ccc2c(c1)OCO2
inactive: endpoint: mean survival time, dose: 18.7 mg/kg/injection, schedule: Q01DX009 (ip), vehicle: suspension in saline 107 % of control | endpoint: mean survival time, dose: 37.5 mg/kg/injection, schedule: Q01DX009 (ip), vehicle: suspension in saline 108 % of control | endpoint: mean survival time, dose: 75.0 mg/kg/injection, schedule: Q01DX009 (ip), vehicle: suspension in saline 107 % of control | endpoint: mean survival time, dose: 150.0 mg/kg/injection, schedule: Q01DX009 (ip), vehicle: suspension in saline 111 % of control

O=S(=O)(O)C(S(=O)(=O)O)S(=O)(=O)O
inactive: [1] 96 % of control | [2] 97 % of control | [3] 93 % of control

O=P1(c2ccccc2)NCC(Br)CO1 (stereo not given)
inactive: endpoint: mean survival time, dose: 31.3 mg/kg/injection, schedule: Q01DX001 (ip), vehicle: other 95 % of control | endpoint: mean survival time, dose: 62.5 mg/kg/injection, schedule: Q01DX001 (ip), vehicle: other 95 % of control | endpoint: mean survival time, dose: 125.0 mg/kg/injection, schedule: Q01DX001 (ip), vehicle: other 100 % of control | endpoint: mean survival time, dose: 250.0 mg/kg/injection, schedule: Q01DX001 (ip), vehicle: other 100 % of control | endpoint: mean survival time, dose: 500.0 mg/kg/injection, schedule: Q01DX001 (ip), vehicle: other 95 % of control

Nc1nc(N)c(-c2ccc(Cl)cc2)c(COc2ccc(C3(CCl)OCCO3)cc2)n1
inactive: endpoint: mean survival time, dose: 25.0 mg/kg/injection, schedule: Q01DX001 (ip), vehicle: saline with Tween-80 94 % of control | endpoint: mean survival time, dose: 50.0 mg/kg/injection, schedule: Q01DX001 (ip), vehicle: saline with Tween-80 102 % of control | [4] 100 % of control

CCOC(=O)C(=O)CC1=CC=CC2=NC(=O)CCN12
inactive: [4] 93 % of control | [7] 93 % of control | [9] 102 % of control

CN(C)c1ccc(C=C(c2ccc(N)cc2)c2ccc(N)cc2)cc1
inactive: [5] 91 % of control | [8] 92 % of control | [10] 94 % of control

O=C(O)CCC(=O)c1ccc(Br)cc1
inactive: [5] 94 % of control | [1] 101 % of control | [8] 103 % of control | [2] 97 % of control | [10] 91 % of control | [3] 89 % of control

OCCCCCCl
inactive: [11] 104 % of control | [12] 98 % of control | [13] 101 % of control

O=C(NCCCl)NC1C(O)C(O)C(O)C(O)C1O (stereo not given)
inactive: [4] 104 % of control | [7] 98 % of control | [9] 98 % of control

NC(=O)c1ncn(C2OC(COP(=O)(O)O)C(O)C2O)c1N (stereo not given)
inactive: endpoint: mean survival time, dose: 12.5 mg/kg/injection, schedule: Q01DX005 (ip), vehicle: water 97 % of control | endpoint: mean survival time, dose: 25.0 mg/kg/injection, schedule: Q01DX005 (ip), vehicle: water 96 % of control | endpoint: mean survival time, dose: 50.0 mg/kg/injection, schedule: Q01DX005 (ip), vehicle: water 102 % of control | [11] 102 % of control | endpoint: mean survival time, dose: 100.0 mg/kg/injection, schedule: Q01DX005 (ip), vehicle: water 94 % of control | [12] 95 % of control | endpoint: mean survival time, dose: 200.0 mg/kg/injection, schedule: Q01DX005 (ip), vehicle: water 100 % of control | [13] 101 % of control

FC1CC=C(S)CC1 (stereo not given)
inactive: endpoint: mean survival time, dose: 5.0 mg/kg/injection, schedule: Q01DX001 (ip), vehicle: saline 100 % of control | endpoint: mean survival time, dose: 10.0 mg/kg/injection, schedule: Q01DX001 (ip), vehicle: saline 106 % of control | endpoint: mean survival time, dose: 20.0 mg/kg/injection, schedule: Q01DX001 (ip), vehicle: saline 103 % of control | endpoint: mean survival time, dose: 40.0 mg/kg/injection, schedule: Q01DX001 (ip), vehicle: saline 100 % of control | endpoint: mean survival time, dose: 80.0 mg/kg/injection, schedule: Q01DX001 (ip), vehicle: saline 102 % of control

COC(CCCl)c1ccc(Cl)cc1 (stereo not given)
inactive: endpoint: mean survival time, dose: 50.0 mg/kg/injection, schedule: Q01DX009 (ip), vehicle: saline 96 % of control | endpoint: mean survival time, dose: 100.0 mg/kg/injection, schedule: Q01DX009 (ip), vehicle: saline 96 % of control | [1] 96 % of control | endpoint: mean survival time, dose: 200.0 mg/kg/injection, schedule: Q01DX009 (ip), vehicle: saline 98 % of control | [2] 87 % of control

CN(C)c1ccc2nc3ccc(=O)cc-3sc2c1
inactive: endpoint: mean survival time, dose: 100.0 mg/kg/injection, schedule: Q01DX009 (ip), vehicle: Klucel (hydroxypropylcellulose) (HPC) 98 % of control | endpoint: mean survival time, dose: 200.0 mg/kg/injection, schedule: Q01DX009 (ip), vehicle: Klucel (hydroxypropylcellulose) (HPC) 101 % of control | endpoint: mean survival time, dose: 400.0 mg/kg/injection, schedule: Q01DX009 (ip), vehicle: Klucel (hydroxypropylcellulose) (HPC) 103 % of control

O=[N+]([O-])c1ccc(NCS(=O)(=O)O)cc1
inactive: [4] 91 % of control | [7] 94 % of control | [9] 87 % of control

N#CCc1ccc(N=Nc2c(N)nc(N)[nH]c2=O)cc1
inactive: [5] 99 % of control | [8] 96 % of control | [10] 87 % of control

CCOC(=O)Cn1cnc2cc(C)c(C)cc21
inactive: [5] 101 % of control | [1] 94 % of control | [8] 94 % of control | [2] 100 % of control | [3] 96 % of control
